Test results as given in doi:10.1101/2023.02.27.530254, “Large library docking for cannabinoid-1 receptor agonists with reduced side effects” (bioRxiv, 2024).
pEC50, pKi: −log10 of the molar value.

Columns and labels:
[1] = biological target: T1, CB1R (Homo sapiens, UniProt P21554, C107A/C139A/C149A/C238A/C355A/C382A/C386A/C415A/C431A/C449A/C98A/R336C); test: Bimane fluorescence of TM6-labeled minimal cysteine CB1R; format: biochemical; conditions: 10 μM ligand; apo 459 nm
T1 construct: N-terminal FLAG tag and C-terminal histidine tag was added to human full-length CB1; FLAG (N); histidine tag (C); made in house; host or cells: Spodoptera frugiperda Sf9 (baculovirus)
Experimental: A minimal cysteine version of CB1R was generated[73] where all the cysteine residues (except C256 and C264) were mutated to alanine. […] Excess label was removed using size exclusion chromatography on a Superdex 200 10/300 Increase column in 20 mM HEPES pH 7.5, 100 mM NaCl and 0.01% MNG/0.001% CHS. Bimane-labeled CB1R at […] was incubated with ligands (10 μM) for one hour at room temperature. Fluorescence data was collected at room temperature in a 150 μL cuvette with a FluorEssence v3.8 software on a Fluorolog instrument (Horiba) in photon-counting mode. Bimane fluorescence was measured by excitation at 370 nm with excitation and emission bandwidth passes of 4 nm. The emission spectra were recorded from 410 to 510 nm with 1 nm increment and 0.1 s integration time.

[2] = biological target: T2, hCB1 (Homo sapiens, UniProt P21554); test: Lance Ultra cAMP accumulation assay (inhibition of forskolin-stimulated cAMP), CHO cells; format: cell-based; parameters: expressed in transfected cells; conditions: hCB1-expressing cells
Experimental: The inhibition of forskolin-stimulated cAMP accumulation assays was carried out using PerkinElmer’s Lance Ultra cAMP kit following the manufacturer’s protocol. In brief, CHO cells stably expressing human CB1R were harvested by incubation with Versene (ThermoFisher Scientific, Waltham, MA) for 10 min, washed once with Hank’s Balanced Salt Solution, and resuspended in stimulation buffer at ~200 cells/μL density. The ligands at eight different concentrations (0.001–10,000 nM) in stimulation buffer (5 μL) containing forskolin (2 μM final concentration) were added to a 384-well plate followed by the cell suspension (5 μL; ~1000 cells/well). The plate was incubated for 30 min at room temperature. Eu-cAMP tracer (5 μL) and Ulight-anti-cAMP (5 μL) working solutions were then added to each well, and the plate was incubated at room temperature for an additional 60 min. Results were measured on a Perkin-Elmer EnVision plate reader. The EC50 values were determined by nonlinear regression analysis using Prism software (GraphPad Software, Inc., San Diego, CA) and are expressed as the mean of three experiments, each performed in triplicate.

[3] = biological target: T2, hCB1; test: bioSens-All ebBRET effector biosensor signaling profiling, HEK293; format: cell-based; parameters: host or cells: HEK293 (HEK293SL clone), transient
Experimental: ebBRET-based effector membrane translocation biosensor assays were conducted at Domain Therapeutics NA Inc. (Montreal, QC, Canada) as previously described. […] HEK293 cells were maintained in Dulbecco’s Modified Eagle Medium (DMEM) (Wisent) supplemented with 1% penicillin- streptomycin (Wisent) and 10% (or 2 % for transfection) fetal bovine serum (Wisent) at 37°C with 5% CO2. All biosensor-coding plasmids and related information are the property of Domain Therapeutics NA Inc. The total amount of transfected DNA was adjusted and kept constant at 1 μg per mL of cell culture to be transfected using salmon sperm DNA (Invitrogen) as ‘carrier’ DNA, PEI (polyethylenimine 25 kDa linear, PolyScience) and DNA (3:1 ml PEI:mg DNA ratio) were first diluted separately in 150 mM NaCl then mixed and incubated for at least 20 minutes at room temperature to allow for the formation of DNA/PEI complexes. During the incubation, HEK293 cells were detached, counted, and re-suspended in maintenance medium to a 350,000 cells per mL density. At the end of the incubation period, the DNA/PEI mixture was added to the cells. Cells were finally distributed in 96-well plates (White Opaque 96-well /Microplates, Greiner) at a density of 35,000 cells per well. Forty-eight hours post-transfection, medium was aspirated and replaced with 100 μl of Hank’s Balanced Salt Solution buffer (HBSS) (Wisent) per well using 450-Select TS Biotek plate washer. After 60 min incubation in this medium, 10 μL of 10 μM e-Coelenterazine Prolume Purple (Methoxy e-CTZ) (Nanolight) was added to each well for a final concentration of 1 μM immediately followed by addition of increasing concentrations of the test compounds to each well using the HP D300 digital dispenser (Tecan). All compounds were assayed at 22 concentrations with each biosensor after a 10-minute room temperature incubation period. […] All BRET ratios were standardized using the universal BRET (uBRET) equation: uBRET=BRETratio-A/B-A×10,000 where A is the BRET ratio obtained from transfection of negative control and B is the BRET ratio obtained from transfection of positive control. […] The data were analyzed using the four-parameter logistic non-linear regression model in GraphPad Prism 9.1 and data were presented as means ± CIs of 1–4 independent experiments.
The SEM was calculated for the logEmax/EC50 ratios using the following equation: SEM=σ/n where σ is the standard deviation, and n is the number of experiments.

[4] = biological target: T3, CB1 (Rattus norvegicus, UniProt P20272); test: Radioligand competition binding with [3H]-CP-55,940, rat brain membranes; conditions: for pKi: rCB1 binding Ki [95% CI], [3H]-CP-55,940 competition, rat brain membranes; for Emax: maximal radioligand displacement, read-out: rCB1 binding Emax [SEM]
T3 construct: membrane preparations from rat brain (source of CB1); tissue Bioivt RAT00BRAINMZN; host or cells: rat brain
Experimental: The results were analyzed using nonlinear regression to determine the IC50 and Ki values for each ligand (Prism by GraphPad Software, Inc., San Diego, CA). The Ki values are expressed as the mean of two to three experiments each performed in triplicate.

[5] = biological target: T2, hCB1; test: Cerep HTRF cAMP inhibition assay, hCB1 CHO-K1 cells; format: cell-based
Experimental: The hCB1 CHO-K1 cells are suspended in HBSS buffer (Invitrogen) complemented with 20 mM HEPES (pH 7.4), then distributed in microplates at a density of 5.103 cells/well in the presence of either of the following: HBSS (basal control), the reference agonist at 30 nM (stimulated control) or the test compounds. […] Following 30 min incubation at 37°C, the cells are lysed, and the fluorescence acceptor (D2-labeled cAMP) and fluorescence donor (anti-cAMP antibody labeled with europium cryptate) are added. […] Each measurement was done in triplicate.

[6] = biological target: T2, hCB1; test: DiscoverX PathHunter β-arrestin-2 recruitment assay; format: cell-based; conditions: hCB1 DiscoverX ß-arrestin recruitment EC50 [95% CI]
Experimental: PathHunter cell lines (CHO-K1 lineage expressing hCB1) were expanded from freezer stocks according to standard procedures. Cells were seeded in a total volume of 20 μL into white walled, 384-well microplates and incubated at 37°C for the appropriate time prior to testing. For agonist determination, cells were incubated with sample to induce response. Intermediate dilution of sample stocks was performed to generate 5X sample in assay buffer. 5 μL of 5X sample was added to cells and incubated at 37°C or room temperature for 90 to 180 minutes. Vehicle concentration was 1%. […] Microplates were read following signal generation with a PerkinElmer EnvisionTM instrument for chemiluminescent signal detection. Compound activity was analyzed using CBIS data analysis suite (ChemInnovation, CA).
The data were analyzed in GraphPad Prism 9.1 using “dose–response-stimulation log(agonist) versus response (four parameters)” and data were presented as EC50 or pEC50 ± CIs of one independent experiment in duplicate.

[7] = biological target: T4, hCB2 (Homo sapiens, UniProt P34972); test: Cerep cAMP assay; format: cell-based
[8] = biological target: T2, hCB1; test: Tango β-arrestin-2 recruitment assay, HTLA cells; format: cell-based; parameters: expressed in transfected cells
Experimental: (§1) The Tango β-arrestin-2 recruitment assays were performed as described. In brief, HTLA cells were transiently transfected with human CB1R or CB2R Tango DNA construct overnight in DMEM supplemented with 10 % FBS, 100 μg ml−1 streptomycin and 100 U ml−1 penicillin. The transfected cells were then plated into poly-L-lysine-coated 384-well white clear-bottom cell culture plates in DMEM containing 1% dialysed FBS at a density of 10,000–15,000 cells per well. After incubation for 6 h, the plates were added with drug solutions prepared in DMEM containing 1% dialysed FBS for overnight incubation. On the day of assay, medium and drug solutions were removed and 20 μl per well of BrightGlo reagent (Promega) was added. The plates were further incubated for 20 min at room temperature and counted using the Wallac TriLux Microbeta counter (PerkinElmer). The results were analysed using GraphPad Prism 9.1. Each experiment was performed in triplicate and functional […] values were determined from the mean of three independent experiments.

[9] = biological target: T4, hCB2; test: Tango β-arrestin-2 recruitment assay, HTLA cells; format: cell-based; parameters: expressed in transfected cells; host or cells: HTLA (transient); conditions: for Emax: HTLA, read-out: hCB2 Tango ß-arrestin recruitment Emax [95% CI]
Experimental: as §1

[10] = biological target: T4, hCB2; test: TRUPATH BRET2 GoA dissociation assay, HEK293T; format: cell-based; parameters: expressed in transfected cells; host or cells: HEK293T (transient); conditions: HEK-293T, read-out: hCB2 BRET2 + GoA Emax [95% CI]
Experimental: […]. GoA dissociation BRET2 assays were performed as previously described with minor modifications. In brief, HEK293T cells were co-transfected overnight with human CB2 receptor, GαoA-Rluc, Gβ3, and Gγ9-GFP2 constructs. After 18–24 hours, the transfected cells were seeded into poly-L-lysine-coated 384-well white clear-bottom cell culture plates at a density of 15,000–20,000 cells and incubated with DMEM containing 1% dialyzed FBS, 100 U mL−1 of penicillin and 100 μg ml−1 of streptomycin for another 24 hours. The next day, the medium was aspirated and washed once with 20 μL of assay buffer (1× HBSS, 20 mM HEPES, 0.1% BSA, pH 7.4). Then, 20 μL of drug buffer containing coelenterazine 400a (Nanolight Technology) at 5 μM final concentration was added to each well and incubated for 5 minutes, followed by the addition of 10 μL of 3X designated drug buffer for 5 minutes. Then, 10 μL of 4X final concentrations of ligands were added for 5 minutes. […] BRET ratio was computed as the ratio of the GFP2 emission to RLuc8 emission. […] Each experiment was performed in triplicate and functional IC50 values were determined from the mean of four independent experiments.

[11] = HEK293, read-out: hCB1 Gi1 Emax [95% CI]
[12] = HEK293, read-out: hCB1 GoB Emax [95% CI]
[13] = HEK293, read-out: hCB1 Gz Emax [95% CI]

T4 sequence (P34972 whole entry): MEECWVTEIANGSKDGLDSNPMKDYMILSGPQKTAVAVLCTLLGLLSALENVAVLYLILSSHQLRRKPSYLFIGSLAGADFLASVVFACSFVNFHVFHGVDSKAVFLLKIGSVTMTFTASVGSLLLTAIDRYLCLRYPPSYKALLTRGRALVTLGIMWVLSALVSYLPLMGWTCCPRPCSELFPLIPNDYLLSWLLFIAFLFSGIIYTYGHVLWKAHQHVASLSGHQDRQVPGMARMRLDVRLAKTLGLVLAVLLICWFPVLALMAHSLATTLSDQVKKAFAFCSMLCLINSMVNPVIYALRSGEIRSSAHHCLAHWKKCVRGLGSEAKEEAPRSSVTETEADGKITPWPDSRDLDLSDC
T3 sequence (P20272 whole entry): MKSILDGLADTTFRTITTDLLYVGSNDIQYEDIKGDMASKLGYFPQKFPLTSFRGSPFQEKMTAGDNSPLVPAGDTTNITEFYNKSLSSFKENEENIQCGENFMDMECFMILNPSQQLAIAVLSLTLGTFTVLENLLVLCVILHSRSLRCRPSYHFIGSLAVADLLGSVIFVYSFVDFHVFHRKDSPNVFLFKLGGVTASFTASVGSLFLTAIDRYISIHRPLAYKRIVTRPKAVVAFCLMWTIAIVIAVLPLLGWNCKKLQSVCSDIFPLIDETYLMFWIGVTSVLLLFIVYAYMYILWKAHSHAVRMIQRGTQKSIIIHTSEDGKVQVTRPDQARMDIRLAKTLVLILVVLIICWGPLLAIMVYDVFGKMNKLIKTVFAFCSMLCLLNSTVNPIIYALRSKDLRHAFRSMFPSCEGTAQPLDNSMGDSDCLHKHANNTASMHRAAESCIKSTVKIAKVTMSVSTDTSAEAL
T2 sequence (P21554 whole entry): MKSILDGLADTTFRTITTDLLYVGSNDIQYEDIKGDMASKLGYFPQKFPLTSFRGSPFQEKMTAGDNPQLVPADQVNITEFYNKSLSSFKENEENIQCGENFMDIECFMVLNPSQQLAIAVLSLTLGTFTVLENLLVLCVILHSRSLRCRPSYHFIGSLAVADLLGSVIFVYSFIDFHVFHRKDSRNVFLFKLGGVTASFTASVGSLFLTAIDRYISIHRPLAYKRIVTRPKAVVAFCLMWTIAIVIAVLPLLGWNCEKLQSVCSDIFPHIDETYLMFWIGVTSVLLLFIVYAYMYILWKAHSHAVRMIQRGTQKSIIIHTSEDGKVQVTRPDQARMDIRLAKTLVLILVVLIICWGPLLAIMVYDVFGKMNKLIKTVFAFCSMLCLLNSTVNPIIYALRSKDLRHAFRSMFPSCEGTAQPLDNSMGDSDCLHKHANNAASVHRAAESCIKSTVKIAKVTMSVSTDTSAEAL
T1 sequence (P21554 whole entry C98A/C107A/C139A/C149A/C238A/R336C/C355A/C382A/C386A/C415A/C431A/C449A): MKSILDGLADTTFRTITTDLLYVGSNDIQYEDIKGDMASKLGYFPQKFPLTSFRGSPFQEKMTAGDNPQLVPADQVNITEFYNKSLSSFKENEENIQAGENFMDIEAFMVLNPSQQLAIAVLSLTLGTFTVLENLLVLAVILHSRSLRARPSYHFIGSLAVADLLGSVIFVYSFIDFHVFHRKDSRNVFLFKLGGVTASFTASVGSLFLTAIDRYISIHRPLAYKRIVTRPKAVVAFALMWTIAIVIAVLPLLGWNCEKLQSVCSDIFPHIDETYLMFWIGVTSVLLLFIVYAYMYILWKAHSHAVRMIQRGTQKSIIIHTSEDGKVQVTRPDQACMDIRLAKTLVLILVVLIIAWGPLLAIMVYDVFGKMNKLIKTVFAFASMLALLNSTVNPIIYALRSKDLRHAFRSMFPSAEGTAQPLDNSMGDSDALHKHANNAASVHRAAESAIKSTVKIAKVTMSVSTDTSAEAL

Row | Structure (SMILES) | functional efficacy (decrease in forskolin stimulated cAMP) [2] | Emax [3, 11] [%] | Emax [3, 12] [%] | pEC50 ([3]; hCB1 Gi1 EC50 [95% CI]) | pEC50 ([3]; hCB1 Gi1 pEC50 [95% CI]) | pEC50 ([3]; hCB1 GoB EC50 [95% CI]) | pKi [4] | pEC50 [8] | pEC50 [9] | Emax [9] [%] | Emax [4] [%] | Emax [3, 13] [%] | pEC50 ([3]; hCB1 GoB pEC50 [95% CI]) | pEC50 ([3]; hCB1 Gz EC50 [95% CI]) | other results
1 | COC(=O)[C@@H](NC(=O)c1nn(Cc2ccc(F)cc2)c2ccccc12)C(C)(C)C [MDMB-fubinaca, reference compound] | – | – | – | – | – | – | – | – | – | – | – | – | – | – | bimane spectrum λmax [1]: 465 nm
2 | Cn1nc(-c2nnc(C(C)(C)Oc3ccc(Cl)cc3)o2)c2ccccc2c1=O [‘0450] | modest agonism | 49 | 36 | 4.25 | 4.30 | 5.60 | 6.16 | – | – | – | – | – | – | – | –
3 | Cc1cc(C(=O)N2CC3(CCC3)C2C2CCCO2)nn1-c1cccc(C(F)(F)F)c1 (stereo not shown) [‘3737] | – | – | – | – | – | – | 6.76 | < 5.00 | 5.82 | 9 | 112 | – | – | – | pEC50 [5]: 6.49; Emax ([5]; CHO-K1, read-out: hCB1 Cerep cAMP Emax [95% CI]): 99%; pEC50 [6]: < 5.00; pEC50 [7]: 8.37; Emax ([7]; read-out: hCB2 Cerep cAMP Emax [95% CI]): 45%
4 | COC(=O)[C@@H]1[C@@H]2CCC[C@@H]2CN1C(=O)c1cc(C)n(-c2cccc(C(F)(F)F)c2)n1 [‘6439] | – | 95 | 100 | – | 7.20 | 7.22 | 6.60 | < 5.00 | 6.47 | 14 | 106 | 162 | 7.20 | 6.47 | Emax [10]: 81%
5 | COC(=O)[C@@H]1[C@@H]2CCC[C@@H]2CN1C(=O)c1cc(C)n(-c2cccc(Cl)c2)n1 [‘10010] | – | 74 | 71 | 6.09 | – | 6.10 | 5.92 | < 5.00 | 6.25 | 18 | 101 | 144 | 6.10 | 5.86 | % [3H]-CP-55,940 displacement (mean) from single point screen ([4]; screens at 10 μM (white cells), 1 μM (orange) or 300 nM (green), cell colours not visible): 33.86%
6 | COC(=O)C(NC(=O)c1cc(C)n(-c2cccc(F)c2)n1)c1cccs1 (stereo not shown) [‘51486] | modest agonism | 73 | 74 | – | – | 6.15 | 6.14 | – | – | – | – | 130 | 6.20 | 5.95 | pEC50 ([3]; hCB1 Gi1 EC50 [95% CI], Gi1 sensor): 6.07; LE ([4]; ligand efficiency): 0.32; LLE ([4]; lipophilic ligand efficiency): 3.1
